# Experimental data taken from patent US10231954B2, “Neurodegenerative therapies” (LYTIX BIOPHARMA AS, priority 2014, dated 2019).
# Like-named read-outs stand apart in the source and are kept apart here.
# Key:
# Format in all cases: biochemical
# SmMLCK = SmMLCK (Homo sapiens, UniProt Q15746); test: Kinase profiling SmMLCK; conditions: for remaining activity at 100 µM: read-out: residual kinase activity, SmMLCK
# JAK2 = JAK2 (Homo sapiens, UniProt O60674); test: Kinase profiling JAK2; conditions: for remaining activity at 100 µM: read-out: residual kinase activity, JAK2
# Description: (§1) Any value less that 25 is considered to be highly significant inhibition.
# p38a MAPK = p38a MAPK (Homo sapiens, UniProt Q16539); test: Kinase profiling p38a MAPK; conditions: for remaining activity at 100 µM: read-out: residual kinase activity, p38a MAPK
# Description: as §1
# SGK1 = molecular target: T1, SGK1 (Homo sapiens, UniProt O00141); test: Kinase profiling SGK1; conditions: for remaining activity at 100 µM: read-out: residual kinase activity, SGK1
# T1 sequence (O00141 1-431): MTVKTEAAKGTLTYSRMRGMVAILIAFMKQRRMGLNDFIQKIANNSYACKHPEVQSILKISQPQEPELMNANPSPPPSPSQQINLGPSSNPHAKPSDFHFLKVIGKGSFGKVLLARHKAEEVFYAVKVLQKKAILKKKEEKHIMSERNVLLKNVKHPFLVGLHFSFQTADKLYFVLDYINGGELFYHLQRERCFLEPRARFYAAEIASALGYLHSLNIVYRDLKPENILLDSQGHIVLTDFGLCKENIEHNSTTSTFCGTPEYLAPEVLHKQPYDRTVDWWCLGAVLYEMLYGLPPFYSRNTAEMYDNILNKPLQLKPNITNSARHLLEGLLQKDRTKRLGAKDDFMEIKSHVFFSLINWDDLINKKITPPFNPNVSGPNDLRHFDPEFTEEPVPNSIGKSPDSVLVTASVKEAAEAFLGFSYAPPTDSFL
# Description: as §1
# RSK2 = RSK2 (Homo sapiens, UniProt P51812); test: Kinase profiling RSK2; conditions: for remaining activity at 100 µM: read-out: residual kinase activity, RSK2
# Description: as §1
# MKK1 = MKK1 (Homo sapiens, UniProt Q02750); test: Kinase profiling MKK1; conditions: for remaining activity at 100 µM: read-out: residual kinase activity, MKK1
# Description: as §1
# IGF-1R = IGF-1R (Homo sapiens, UniProt P08069); test: Kinase profiling IGF-1R; conditions: for remaining activity at 100 µM: read-out: residual kinase activity, IGF-1R
# Description: as §1
# p38d MAPK = molecular target: T2, p38d MAPK (Homo sapiens, UniProt O15264); test: Kinase profiling p38d MAPK; conditions: for remaining activity at 100 µM: read-out: residual kinase activity, p38d MAPK
# T2 sequence (O15264 1-365): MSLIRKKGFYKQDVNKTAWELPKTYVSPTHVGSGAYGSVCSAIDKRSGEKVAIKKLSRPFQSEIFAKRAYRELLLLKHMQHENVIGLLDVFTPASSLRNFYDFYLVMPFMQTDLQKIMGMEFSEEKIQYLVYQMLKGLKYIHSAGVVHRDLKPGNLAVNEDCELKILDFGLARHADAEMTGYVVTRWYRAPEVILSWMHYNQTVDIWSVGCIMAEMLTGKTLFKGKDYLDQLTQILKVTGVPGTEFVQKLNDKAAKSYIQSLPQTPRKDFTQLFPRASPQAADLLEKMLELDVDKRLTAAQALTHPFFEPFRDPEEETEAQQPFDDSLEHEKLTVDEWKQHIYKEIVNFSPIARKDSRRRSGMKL
# Description: as §1
# JNK1 = JNK1 (Homo sapiens, UniProt P45983); test: Kinase profiling JNK1; conditions: for remaining activity at 100 µM: read-out: residual kinase activity, JNK1
# Description: as §1
# TTK = molecular target: T3, TTK (Homo sapiens, UniProt P33981); test: Kinase profiling TTK; conditions: for remaining activity at 100 µM: read-out: residual kinase activity, TTK
# T3 sequence (P33981 1-857): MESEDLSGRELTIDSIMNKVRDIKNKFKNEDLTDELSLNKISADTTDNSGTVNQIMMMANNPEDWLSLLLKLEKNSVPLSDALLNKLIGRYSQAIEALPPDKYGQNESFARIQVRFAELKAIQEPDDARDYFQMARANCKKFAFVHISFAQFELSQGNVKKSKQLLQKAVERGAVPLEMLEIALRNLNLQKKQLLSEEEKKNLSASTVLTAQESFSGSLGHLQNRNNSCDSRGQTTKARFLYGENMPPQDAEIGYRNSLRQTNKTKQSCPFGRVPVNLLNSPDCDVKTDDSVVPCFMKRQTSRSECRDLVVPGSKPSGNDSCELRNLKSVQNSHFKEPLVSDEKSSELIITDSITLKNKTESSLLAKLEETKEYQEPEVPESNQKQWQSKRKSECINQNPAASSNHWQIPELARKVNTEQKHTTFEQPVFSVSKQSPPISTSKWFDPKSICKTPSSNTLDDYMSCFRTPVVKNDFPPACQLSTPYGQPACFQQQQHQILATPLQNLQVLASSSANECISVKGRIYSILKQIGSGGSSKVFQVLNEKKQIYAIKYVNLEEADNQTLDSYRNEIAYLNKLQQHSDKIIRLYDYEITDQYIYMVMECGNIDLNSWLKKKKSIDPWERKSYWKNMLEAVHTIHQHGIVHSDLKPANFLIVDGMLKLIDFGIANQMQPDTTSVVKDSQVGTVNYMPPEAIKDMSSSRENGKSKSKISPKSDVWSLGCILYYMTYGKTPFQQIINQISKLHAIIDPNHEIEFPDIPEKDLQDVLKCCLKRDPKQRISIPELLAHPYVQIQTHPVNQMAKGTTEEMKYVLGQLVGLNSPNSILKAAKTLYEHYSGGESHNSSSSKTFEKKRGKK
# Description: as §1
# RIPK2 = RIPK2 (Homo sapiens, UniProt O43353); test: Kinase profiling RIPK2; conditions: for remaining activity at 100 µM: read-out: residual kinase activity, RIPK2
# Description: as §1
# MST2 = molecular target: T4, MST2 (Homo sapiens, UniProt Q13188); test: Kinase profiling MST2; conditions: for remaining activity at 100 µM: read-out: residual kinase activity, MST2
# T4 sequence (Q13188 1-491): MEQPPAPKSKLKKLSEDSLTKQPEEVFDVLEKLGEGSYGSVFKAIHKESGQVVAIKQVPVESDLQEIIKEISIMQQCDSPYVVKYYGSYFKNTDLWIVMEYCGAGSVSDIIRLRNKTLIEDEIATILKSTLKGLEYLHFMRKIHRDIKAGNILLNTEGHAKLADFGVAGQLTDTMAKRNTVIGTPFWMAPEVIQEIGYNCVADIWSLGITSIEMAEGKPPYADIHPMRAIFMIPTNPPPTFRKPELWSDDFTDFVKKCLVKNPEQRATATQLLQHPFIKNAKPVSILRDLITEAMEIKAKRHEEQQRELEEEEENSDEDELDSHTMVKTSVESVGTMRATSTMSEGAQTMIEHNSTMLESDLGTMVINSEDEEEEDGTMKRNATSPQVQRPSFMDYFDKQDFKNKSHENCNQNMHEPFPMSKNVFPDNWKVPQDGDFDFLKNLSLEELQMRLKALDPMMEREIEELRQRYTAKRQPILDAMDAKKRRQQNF
# Description: as §1
# PKBb = PKBb (Homo sapiens, UniProt P31751); test: Kinase profiling PKBb; conditions: for remaining activity at 100 µM: read-out: residual kinase activity, PKBb; for residual kinase activity, PKBb: 100 micromolar inhibitor concentration, 100 is no change
# Description: as §1
# STK33 = STK33 (Homo sapiens, UniProt Q9BYT3); test: Kinase profiling STK33; conditions: for remaining activity at 100 µM: read-out: residual kinase activity, STK33
# Description: as §1
# JNK3 = JNK3 (Homo sapiens, UniProt P53779); test: Kinase profiling JNK3; conditions: for remaining activity at 100 µM: read-out: residual kinase activity, JNK3
# Description: as §1
# [1] = 100 micromolar inhibitor concentration, 100 is no change
# [2] = 100 micromolar inhibitor, 100 = no change
# MKK1, sequence (Q02750 whole entry, species assumed): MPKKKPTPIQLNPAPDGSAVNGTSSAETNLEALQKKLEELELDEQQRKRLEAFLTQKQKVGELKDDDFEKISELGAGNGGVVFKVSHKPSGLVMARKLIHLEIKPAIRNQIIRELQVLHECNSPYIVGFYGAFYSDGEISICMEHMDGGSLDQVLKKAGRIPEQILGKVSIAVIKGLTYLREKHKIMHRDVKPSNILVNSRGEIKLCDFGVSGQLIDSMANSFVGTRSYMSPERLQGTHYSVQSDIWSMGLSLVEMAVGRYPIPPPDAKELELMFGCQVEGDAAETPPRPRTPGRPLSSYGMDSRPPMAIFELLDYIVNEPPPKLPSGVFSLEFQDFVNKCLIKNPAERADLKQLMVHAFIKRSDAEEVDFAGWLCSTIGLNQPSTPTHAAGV
# STK33, sequence (Q9BYT3 whole entry, species assumed): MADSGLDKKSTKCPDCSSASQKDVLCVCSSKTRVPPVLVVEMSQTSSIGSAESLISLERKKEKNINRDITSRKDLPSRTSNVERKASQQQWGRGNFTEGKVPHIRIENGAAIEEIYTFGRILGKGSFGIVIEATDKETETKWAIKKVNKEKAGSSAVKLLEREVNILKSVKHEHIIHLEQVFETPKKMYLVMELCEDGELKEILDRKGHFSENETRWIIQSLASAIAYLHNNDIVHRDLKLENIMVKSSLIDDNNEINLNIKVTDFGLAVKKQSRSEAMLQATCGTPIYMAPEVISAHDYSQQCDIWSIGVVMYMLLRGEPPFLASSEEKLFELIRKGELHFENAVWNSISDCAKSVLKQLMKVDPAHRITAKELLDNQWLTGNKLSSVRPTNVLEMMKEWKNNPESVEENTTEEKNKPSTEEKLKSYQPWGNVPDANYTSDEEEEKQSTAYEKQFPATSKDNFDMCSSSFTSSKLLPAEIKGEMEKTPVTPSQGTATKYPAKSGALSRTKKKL
# JNK1, sequence (P45983 whole entry, species assumed): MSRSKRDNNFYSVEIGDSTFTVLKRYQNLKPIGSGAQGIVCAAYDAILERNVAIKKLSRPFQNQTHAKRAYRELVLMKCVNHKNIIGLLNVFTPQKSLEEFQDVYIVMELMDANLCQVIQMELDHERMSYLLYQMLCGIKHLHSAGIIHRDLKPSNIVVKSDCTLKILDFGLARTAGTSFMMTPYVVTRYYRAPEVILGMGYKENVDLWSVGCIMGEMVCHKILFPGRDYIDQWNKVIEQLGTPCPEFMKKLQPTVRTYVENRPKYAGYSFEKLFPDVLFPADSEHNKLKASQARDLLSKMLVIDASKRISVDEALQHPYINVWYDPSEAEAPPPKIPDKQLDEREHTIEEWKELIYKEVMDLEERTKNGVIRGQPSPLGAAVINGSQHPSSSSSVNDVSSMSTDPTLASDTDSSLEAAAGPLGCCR
# RSK2, sequence (P51812 whole entry, species assumed): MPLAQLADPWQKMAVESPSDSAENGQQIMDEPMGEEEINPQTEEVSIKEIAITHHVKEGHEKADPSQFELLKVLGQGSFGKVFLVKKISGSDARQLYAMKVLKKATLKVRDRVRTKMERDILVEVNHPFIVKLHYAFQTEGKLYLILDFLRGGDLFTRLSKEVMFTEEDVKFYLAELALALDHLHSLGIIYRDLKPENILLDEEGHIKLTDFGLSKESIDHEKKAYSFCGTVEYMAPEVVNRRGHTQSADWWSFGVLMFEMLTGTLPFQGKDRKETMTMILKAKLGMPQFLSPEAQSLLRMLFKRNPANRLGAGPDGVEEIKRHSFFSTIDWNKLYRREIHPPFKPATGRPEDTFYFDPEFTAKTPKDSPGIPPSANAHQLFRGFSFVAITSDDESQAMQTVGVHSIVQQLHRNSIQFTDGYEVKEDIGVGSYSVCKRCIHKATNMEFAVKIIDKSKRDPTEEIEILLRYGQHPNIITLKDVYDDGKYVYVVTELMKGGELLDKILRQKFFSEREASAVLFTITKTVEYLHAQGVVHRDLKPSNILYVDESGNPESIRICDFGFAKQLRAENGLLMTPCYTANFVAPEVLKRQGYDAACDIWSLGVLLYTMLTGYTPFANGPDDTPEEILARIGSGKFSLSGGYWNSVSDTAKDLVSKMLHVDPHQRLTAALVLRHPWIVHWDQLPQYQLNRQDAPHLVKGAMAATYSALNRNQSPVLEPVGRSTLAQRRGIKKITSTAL
# PKBb, sequence (P31751 whole entry): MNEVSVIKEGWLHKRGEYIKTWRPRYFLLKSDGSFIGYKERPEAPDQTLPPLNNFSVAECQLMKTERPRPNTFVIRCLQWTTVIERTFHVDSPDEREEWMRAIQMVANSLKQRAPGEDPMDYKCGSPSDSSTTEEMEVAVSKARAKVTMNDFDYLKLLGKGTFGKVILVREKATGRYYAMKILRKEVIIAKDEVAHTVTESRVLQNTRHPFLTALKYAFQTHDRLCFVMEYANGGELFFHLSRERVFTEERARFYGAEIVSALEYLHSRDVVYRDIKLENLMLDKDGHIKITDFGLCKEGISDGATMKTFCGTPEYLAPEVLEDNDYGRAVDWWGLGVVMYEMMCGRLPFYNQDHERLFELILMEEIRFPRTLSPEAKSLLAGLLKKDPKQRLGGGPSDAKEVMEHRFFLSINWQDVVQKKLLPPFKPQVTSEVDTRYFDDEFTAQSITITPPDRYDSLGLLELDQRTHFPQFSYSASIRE
# RIPK2, sequence (O43353 whole entry, species assumed): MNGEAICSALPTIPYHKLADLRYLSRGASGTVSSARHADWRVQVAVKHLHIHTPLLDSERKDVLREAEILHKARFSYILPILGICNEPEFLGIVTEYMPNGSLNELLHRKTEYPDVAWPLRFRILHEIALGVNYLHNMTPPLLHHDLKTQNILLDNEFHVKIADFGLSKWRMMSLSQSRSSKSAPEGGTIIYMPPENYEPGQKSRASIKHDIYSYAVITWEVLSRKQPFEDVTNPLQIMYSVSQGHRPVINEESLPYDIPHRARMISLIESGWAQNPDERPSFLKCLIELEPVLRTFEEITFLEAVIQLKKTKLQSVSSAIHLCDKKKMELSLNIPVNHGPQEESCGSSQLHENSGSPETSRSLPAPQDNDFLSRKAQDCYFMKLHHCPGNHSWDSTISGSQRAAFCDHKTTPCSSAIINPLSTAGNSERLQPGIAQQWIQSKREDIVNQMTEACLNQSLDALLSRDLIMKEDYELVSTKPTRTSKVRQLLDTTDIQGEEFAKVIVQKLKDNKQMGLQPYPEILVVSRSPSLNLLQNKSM
# JNK3, sequence (P53779 whole entry, species assumed): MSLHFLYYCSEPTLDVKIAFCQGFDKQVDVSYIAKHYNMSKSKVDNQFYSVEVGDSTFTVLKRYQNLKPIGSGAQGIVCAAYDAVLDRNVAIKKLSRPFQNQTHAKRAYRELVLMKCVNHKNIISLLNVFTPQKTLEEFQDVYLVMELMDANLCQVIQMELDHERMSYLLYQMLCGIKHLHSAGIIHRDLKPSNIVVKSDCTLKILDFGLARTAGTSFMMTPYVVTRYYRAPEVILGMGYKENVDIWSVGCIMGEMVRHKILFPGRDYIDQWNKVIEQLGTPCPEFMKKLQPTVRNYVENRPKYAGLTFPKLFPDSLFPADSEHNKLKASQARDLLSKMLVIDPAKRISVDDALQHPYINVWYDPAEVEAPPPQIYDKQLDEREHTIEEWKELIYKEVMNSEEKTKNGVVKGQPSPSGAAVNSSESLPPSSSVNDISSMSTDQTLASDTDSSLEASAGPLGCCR
# SmMLCK, sequence (Q15746 923-1914): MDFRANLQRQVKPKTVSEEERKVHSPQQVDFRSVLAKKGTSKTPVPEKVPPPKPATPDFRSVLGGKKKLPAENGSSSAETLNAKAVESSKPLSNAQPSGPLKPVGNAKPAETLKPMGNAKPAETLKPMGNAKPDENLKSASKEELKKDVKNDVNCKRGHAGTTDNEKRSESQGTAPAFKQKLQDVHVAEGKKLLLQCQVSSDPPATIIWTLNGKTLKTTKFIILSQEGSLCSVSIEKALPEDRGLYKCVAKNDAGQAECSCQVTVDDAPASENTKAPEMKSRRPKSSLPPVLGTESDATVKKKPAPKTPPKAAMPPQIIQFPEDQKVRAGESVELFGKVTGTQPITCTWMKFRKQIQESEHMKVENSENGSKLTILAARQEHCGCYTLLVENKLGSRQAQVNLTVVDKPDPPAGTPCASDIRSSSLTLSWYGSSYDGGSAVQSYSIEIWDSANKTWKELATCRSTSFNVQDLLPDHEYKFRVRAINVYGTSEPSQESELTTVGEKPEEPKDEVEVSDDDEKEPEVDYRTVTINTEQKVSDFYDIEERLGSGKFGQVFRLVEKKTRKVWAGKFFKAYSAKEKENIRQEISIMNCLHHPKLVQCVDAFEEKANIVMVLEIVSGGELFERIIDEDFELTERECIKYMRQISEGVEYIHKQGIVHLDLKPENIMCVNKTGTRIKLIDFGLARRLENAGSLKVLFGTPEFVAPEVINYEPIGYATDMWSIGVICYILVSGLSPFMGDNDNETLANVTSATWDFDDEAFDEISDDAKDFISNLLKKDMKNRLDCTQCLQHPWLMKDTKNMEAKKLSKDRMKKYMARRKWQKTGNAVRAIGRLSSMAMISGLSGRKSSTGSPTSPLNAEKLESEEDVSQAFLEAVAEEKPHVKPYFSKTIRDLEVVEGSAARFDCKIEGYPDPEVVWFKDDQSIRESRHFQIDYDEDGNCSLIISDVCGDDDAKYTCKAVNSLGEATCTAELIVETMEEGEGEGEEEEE
# p38a MAPK, sequence (Q16539 whole entry): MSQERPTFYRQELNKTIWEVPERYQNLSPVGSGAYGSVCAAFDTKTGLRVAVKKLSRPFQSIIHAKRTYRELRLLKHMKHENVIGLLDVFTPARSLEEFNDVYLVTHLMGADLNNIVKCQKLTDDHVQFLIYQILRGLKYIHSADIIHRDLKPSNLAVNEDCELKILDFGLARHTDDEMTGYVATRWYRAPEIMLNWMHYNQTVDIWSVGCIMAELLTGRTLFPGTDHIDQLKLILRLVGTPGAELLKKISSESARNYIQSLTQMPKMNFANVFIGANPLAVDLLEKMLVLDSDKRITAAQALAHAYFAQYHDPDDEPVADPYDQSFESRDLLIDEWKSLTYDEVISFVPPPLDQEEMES
SMILES,remaining activity at 100 µM (SmMLCK; [1]),remaining activity at 100 µM (JAK2; [1]),remaining activity at 100 µM (p38a MAPK; [1]),remaining activity at 100 µM (SGK1; [1]),remaining activity at 100 µM (RSK2; [1]),remaining activity at 100 µM (MKK1; [1]),remaining activity at 100 µM (IGF-1R; [1]),remaining activity at 100 µM (p38d MAPK; [1]),remaining activity at 100 µM (JNK1; [1]),remaining activity at 100 µM (TTK; [1]),remaining activity at 100 µM (RIPK2; [1]),remaining activity at 100 µM (MST2; [1]),remaining activity at 100 µM (PKBb),remaining activity at 100 µM (STK33; [1]),remaining activity at 100 µM (JNK3; [1]),"residual kinase activity, SmMLCK (SmMLCK; [1])","residual kinase activity, JAK2 (JAK2; [1])","residual kinase activity, p38a MAPK (p38a MAPK; [1])","residual kinase activity, SGK1 (SGK1; [1])","residual kinase activity, RSK2 (RSK2; [1])",further results
CC(=O)Nc1nc2ccc(O)cc2s1 [Compound 01-71],39%,43%,86%,33%,48%,35%,18%,43%,72%,31%,22%,56%,57%,41%,66%,–,–,–,–,–,–
CC(=O)Nc1nc2ccc(C(F)(F)F)cc2s1 [Compound 01-90],80%,73%,106%,69%,92%,80%,84%,76%,104%,49%,23%,99%,100%,46%,76%,–,–,–,–,–,–
CC(=O)Nc1nc2ccc(C#N)cc2s1 [Compound 01-94],54%,33%,102%,40%,87%,34%,78%,69%,90%,33%,17%,56%,98%,35%,53%,–,–,–,–,–,–
"CC(=O)Nc1cccc(NC(=O)c2nc3ccc(O)cc3s2)c1 [Compound 03-07, N-(3-acetamidophenyl)-6-hydroxybenzo[d]thiazole-2-carboxamide]",–,–,–,–,–,–,–,–,–,–,–,–,–,–,–,–,–,–,–,–,remaining activity at 100 µM (SmMLCK; [2]): 21%; remaining activity at 100 µM (JAK2; [2]): 56%; remaining activity at 100 µM (p38a MAPK; [2]): 93%; remaining activity at 100 µM (SGK1; [2]): 64%; remaining activity at 100 µM (RSK2; [2]): 71%; remaining activity at 100 µM (MKK1; [2]): 85%; remaining activity at 100 µM (IGF-1R; [2]): 96%; remaining activity at 100 µM (p38d MAPK; [2]): 81%; remaining activity at 100 µM (JNK1; [2]): 103%; remaining activity at 100 µM (TTK; [2]): 28%; remaining activity at 100 µM (RIPK2; [2]): 18%; remaining activity at 100 µM (MST2; [2]): 68%; remaining activity at 100 µM (PKBb; [2]): 26%; remaining activity at 100 µM (STK33; [2]): 63%; remaining activity at 100 µM (JNK3; [2]): 50%
O=C(Nc1nc2cc(O)ccc2s1)c1ccncc1 [Compound 03-11],–,–,–,–,–,–,–,–,–,–,–,–,–,–,–,63,66,106,84,71,"residual kinase activity, MKK1 (MKK1; [1]): 88; residual kinase activity, IGF-1R (IGF-1R; [1]): 107; residual kinase activity, p38d MAPK (p38d MAPK; [1]): 82; residual kinase activity, JNK1 (JNK1; [1]): 95; residual kinase activity, TTK (TTK; [1]): 74; residual kinase activity, RIPK2 (RIPK2; [1]): 60; residual kinase activity, MST2 (MST2; [1]): 84; residual kinase activity, PKBb (PKBb): 82; residual kinase activity, STK33 (STK33; [1]): 77; residual kinase activity, JNK3 (JNK3; [1]): 77"
O=C(Nc1nc2ccc(O)cc2s1)c1ccccn1 [Compound 03-12],–,–,–,–,–,–,–,–,–,–,–,–,–,–,–,9,71,107,88,53,"residual kinase activity, MKK1 (MKK1; [1]): 80; residual kinase activity, IGF-1R (IGF-1R; [1]): 54; residual kinase activity, p38d MAPK (p38d MAPK; [1]): 77; residual kinase activity, JNK1 (JNK1; [1]): 105; residual kinase activity, TTK (TTK; [1]): 36; residual kinase activity, RIPK2 (RIPK2; [1]): 29; residual kinase activity, MST2 (MST2; [1]): 61; residual kinase activity, PKBb (PKBb): 61; residual kinase activity, STK33 (STK33; [1]): 65; residual kinase activity, JNK3 (JNK3; [1]): 70"
